Data taken from publication PMC7535918, “Uncovering a novel molecular mechanism for scavenging sialic acids in bacteria” (The Journal of Biological Chemistry, 2020).

What was measured:
[1] = molecular target: T1, RgNanOx (Mediterraneibacter gnavus, UniProt A7B558); experiment: differential scanning fluorimetry; assay type: binding; conditions: […] NADH, […] protein, […] sodium phosphate pH […]
T1 construct: gene RUMGNA_02695; Gfo/Idh/MocA-class Rossmann fold; dimer in the asymmetric unit

[2] = molecular target: T1, RgNanOx; experiment: X-ray crystal structure of the complex ([…] and […] A); assay type: binding; conditions: NAD+ bound at Rossmann fold; citric acid from crystallization buffer beside nicotinamide; sodium citrate pH […], PEG […]

SMILES: NC(=O)C1=CN([C@@H]2O[C@H](COP(=O)(O)OP(=O)(O)OC[C@H]3O[C@@H](n4cnc5c(N)ncnc54)[C@H](O)[C@@H]3O)[C@@H](O)[C@H]2O)C=CC1 [NADH]
- ΔTm [1]: DSF analysis of RgNanOx and EcNanOx, the ΔTm is shown

SMILES: NC(=O)c1ccc[n+]([C@@H]2O[C@H](COP(=O)(O)OP(=O)(O)OC[C@H]3O[C@@H](n4cnc5c(N)ncnc54)[C@H](O)[C@@H]3O)[C@@H](O)[C@H]2O)c1 [NAD^+]
- X-ray crystal structure of the complex (2.58 and 1.74 A) [2]: crystal structure of the recombinant RgNanOx in complex with the NAD^+ cofactor was solved
